The target in one data set is T1, rat mGluR5 (Rattus norvegicus, UniProt P31424).
T1 construct: expressed in transfected cells
The data set can be described thus: mGluR5 assay on HEK-expressing rat mGluR5 (fluorescent cell based Ca2+ mobilization assay). The following applies: HEK-293 cells stably expressing rat mGluR5; no co-addition of glutamate; mean of at least three independent experiments in duplicate; read-out: Ca++ Flux (mean EC50). The protocol:
mGluR5 Assay on HEK-Expressing Rat mGluR5
Positive functional expression of HEK-293 cells stably expressing rat mGluR5 receptor was determined by measuring intracellular Ca^2+ changes using a Fluorometric Imaging Plate Reader (FLIPR, Molecular Devices, Sunnyvale, Calif.) in response to glutamate or selective known mGluR5 agonists and antagonists. Rat mGluR5 RT-PCR products in HEK-293 cells were sequenced and found 100% identical to rat mGluR5 Genbank reference sequence (NM_017012). HEK-293 cells expressing rmGluR5 were maintained in media containing DMEM, dialyzed Fetal Bovine Serum (10%), Glutamax™ (2 mM), Penicillin (100 units/ml), Streptomycin (100 μg/ml), Geneticin (100 μg/ml) and Hygromycin-B (40 μg/ml) at 37° C./5% CO2.
After one day of incubation, cells were washed with assay buffer containing: 142 mM NaCl, 6 mM KCl, 1 mM […], 1 mM CaCl2, 20 mM HEPES, 1 g/L glucose, 0.125 mM sulfinpyrazone, pH 7.4. After 60 min of loading with 4 uM Fluo-4 (TefLabs, Austin, Tex.), the cells were washed three times with 50 μl of PBS Buffer and resuspended in 45 μl of assay Buffer. The plates were then transferred to a Fluorometric Imaging Plate Reader (FLIPR, Molecular Devices, Sunnyvale, Calif.) for the assessment of intracellular calcium flux. After monitoring the baseline fluorescence for 10 seconds, increasing concentrations of representative compound (from 0.01 to 60 μM) of the present invention diluted in Assay Buffer (15 μl of 4× dilutions) was added to the cell. The final DMSO concentration in the assay was 0.3%. In each experiment, fluorescence was then monitored as a function of time for 3 minutes and the data analyzed using Microsoft Excel and GraphPad Prism. Each data point was also measured two times.
Under these experimental conditions, this HEK-rat mGluR5 cell line is able to directly detect positive allosteric modulators without the need of co-addition of glutamate or mGluR5 agonist.
The concentration-response curves of representative compounds of the present invention were generated using the Prism GraphPad software (Graph Pad Inc, San Diego, USA). The curves were fitted to a four-parameter logistic equation:
(Y=Bottom+(Top−Bottom)/(1+10̂((Log EC50−X)*Hill Slope)
allowing determination of EC50 values.
The Table 1 below represents the mean EC50 obtained from at least three independent experiments of selected molecules performed in duplicate.
For orientation: A change in cytosolic calcium serves as a functional read-out for many receptors and channels.

The results in this text go back to patent publication US20090197897A1, “Novel Oxadiazole Derivatives and Their Use as Positive Allosteric Modulators of Metabotropic Glutamate Receptors” (Addex Pharma SA, priority 2005, published 2009).

Structures can show the parent of a compound that is named as a salt.

A word on the melting point: it is the temperature, or range, at which the solid turns liquid. The EC50 is the midpoint of the concentration-response curve.

T1 sequence (P31424 21-1171 isoform P31424-2 limits assumed): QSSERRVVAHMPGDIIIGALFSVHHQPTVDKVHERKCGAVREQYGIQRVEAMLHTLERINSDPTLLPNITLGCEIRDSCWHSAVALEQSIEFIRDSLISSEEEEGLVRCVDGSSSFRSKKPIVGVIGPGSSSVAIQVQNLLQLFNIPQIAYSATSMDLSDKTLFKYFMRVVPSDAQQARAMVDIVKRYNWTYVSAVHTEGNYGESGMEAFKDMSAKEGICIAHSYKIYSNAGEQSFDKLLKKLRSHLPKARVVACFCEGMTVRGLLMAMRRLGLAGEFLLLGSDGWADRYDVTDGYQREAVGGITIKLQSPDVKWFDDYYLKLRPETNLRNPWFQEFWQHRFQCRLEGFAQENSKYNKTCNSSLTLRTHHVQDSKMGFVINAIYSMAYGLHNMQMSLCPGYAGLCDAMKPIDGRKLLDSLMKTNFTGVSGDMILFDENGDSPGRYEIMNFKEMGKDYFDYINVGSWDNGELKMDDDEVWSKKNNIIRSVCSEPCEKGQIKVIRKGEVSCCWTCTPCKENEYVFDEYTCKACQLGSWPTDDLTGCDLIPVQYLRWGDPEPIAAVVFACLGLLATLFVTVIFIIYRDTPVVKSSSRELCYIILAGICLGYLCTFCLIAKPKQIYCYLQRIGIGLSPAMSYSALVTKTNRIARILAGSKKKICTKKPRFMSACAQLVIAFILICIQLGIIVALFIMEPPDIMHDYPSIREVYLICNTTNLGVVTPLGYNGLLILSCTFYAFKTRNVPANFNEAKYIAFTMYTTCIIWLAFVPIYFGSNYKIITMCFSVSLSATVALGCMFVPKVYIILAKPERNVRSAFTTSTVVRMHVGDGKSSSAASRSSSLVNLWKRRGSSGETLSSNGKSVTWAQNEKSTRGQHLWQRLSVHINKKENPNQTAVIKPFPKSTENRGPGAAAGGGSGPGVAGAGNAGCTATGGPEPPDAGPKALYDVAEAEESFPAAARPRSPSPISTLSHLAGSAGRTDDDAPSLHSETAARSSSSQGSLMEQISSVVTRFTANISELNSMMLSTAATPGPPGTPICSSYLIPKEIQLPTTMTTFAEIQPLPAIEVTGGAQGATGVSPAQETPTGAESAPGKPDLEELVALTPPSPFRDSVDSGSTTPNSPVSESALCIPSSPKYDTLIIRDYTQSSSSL

`O=C(C1CCOCC1)N1CCC[C@H](c2nc(-c3ccc(F)cc3)no2)C1` [Example 9, {(S)-3-[3-(4-Fluoro-phenyl)-[1,2,4]oxadiazol-5-yl]-piperidin-1-yl}-(tetrahydro-pyran-4-yl)-methanone] gave a melting point of 98 to 100 °C. Besides, the EC50 at rat mGluR5 is 1000 to 10000 nM. In turn, `Cc1cc(C(=O)N2CCC[C@H](c3nc(-c4ccc(F)cc4)no3)C2)c(C)n1C` [Example 17, {(S)-3-[3-(4-Fluoro-phenyl)-[1,2,4]oxadiazol-5-yl]-piperidin-1-yl}-(1,2,5-trimethyl-1H-pyrrol-3-yl)-methanone] displayed a melting point of 122 to 126 °C. In addition, at rat mGluR5, the EC50 was in the range of 1000 to 10000 nM. On to `O=C(c1ccc(F)c(F)c1)N1CCC[C@H](c2nc(-c3ccc(F)cc3F)no2)C1` [Example 68, (3,4-Difluoro-phenyl)-{(S)-3-[3-(2,4-difluoro-phenyl)-[1,2,4]oxadiazol-5-yl]-piperidin-1-yl}-methanone], for which, at rat mGluR5, the EC50 was < 1000 nM.

Take `O=C(c1ccc(F)nc1)N1CCC[C@H](c2nc(-c3ccc(F)cc3F)no2)C1` [Example 66, {(S)-3-[3-(2,4-Difluoro-phenyl)-[1,2,4]oxadiazol-5-yl]-piperidin-1-yl}-(6-fluoro-pyridin-3-yl)-methanone]: at rat mGluR5, the EC50 is < 1000 nM. As for `Cc1ccoc1C(=O)N1CCC[C@H](c2nc(-c3ccc(F)cc3)no2)C1` [Example 30, (S)-{3-[3-(4-Fluoro-phenyl)-[1,2,4]oxadiazol-5-yl]-piperidin-1-yl}-(3-methyl-furan-2-yl)-methanone], the EC50 on rat mGluR5 lay in the range of 1000 to 10000 nM. Take `O=C(C1CCc2cc(F)ccc21)N1CCC[C@H](c2nc(-c3ccc(F)cc3)no2)C1` (stereo partly drawn) [Example 8, (5-Fluoro-indan-1-yl)-{(S)-3-[3-(4-fluoro-phenyl)-[1,2,4]oxadiazol-5-yl]-piperidin-1-yl}-methanone]: the EC50 on rat mGluR5 was > 10000 nM. Still for that read-out and setting: as for `O=C(c1ccc(F)cc1)N1CCC[C@H](c2nc(-c3ccco3)no2)C1` [Example 35, (4-Fluoro-phenyl)-[(S)-3-(3-furan-2-yl-[1,2,4]oxadiazol-5-yl)-piperidin-1-yl]-methanone], the figure is 1000 to 10000 nM.

As to `Cc1ncc(-c2noc([C@H]3CCCN(C(=O)c4ccc(F)c(F)c4)C3)n2)s1` [Example 75, (3,4-Difluoro-phenyl)-{(S)-3-[3-(2-methyl-thiazol-5-yl)-[1,2,4]oxadiazol-5-yl]-piperidin-1-yl}-methanone], at rat mGluR5, the EC50 is 1000 to 10000 nM. The same measure, in the same setting: next, `Cc1nc(C)c(C(=O)N2CCC[C@H](c3nc(-c4ccc(F)cc4)no3)C2)s1` [Example 18, (2,4-Dimethyl-thiazol-5-yl)-{(S)-3-[3-(4-fluoro-phenyl)-[1,2,4]oxadiazol-5-yl]-piperidin-1-yl}-methanone]: 1000 to 10000 nM; `CCc1ccccc1C(=O)N1CCC[C@H](c2nc(-c3ccc(F)cc3)no2)C1` [Example 20, (2-Ethyl-phenyl)-{3-[3-(4-fluoro-phenyl)-[1,2,4]oxadiazol-5-yl]-piperidin-1-yl}-methanone]: 1000 to 10000 nM; `O=C(c1cccc(COc2ccccc2)c1)N1CCC[C@H](c2nc(-c3ccc(F)cc3)no2)C1` [Example 6, {(S)-3-[3-(4-Fluoro-phenyl)-[1,2,4]oxadiazol-5-yl]-piperidin-1-yl}-(3-phenoxymethyl-phenyl)-methanone]: > 10000 nM.

As to `COCc1oncc1C(=O)N1CCC[C@H](c2nc(-c3ccc(F)cc3)no2)C1` [Example 47, {(S)-3-[3-(4-Fluoro-phenyl)-[1,2,4]oxadiazol-5-yl]-piperidin-1-yl}-(5-methoxymethyl-isoxazol-4-yl)-methanone], the EC50 on rat mGluR5 was 1000 to 10000 nM. Still for that read-out and setting: next, `O=C(c1ccc(F)cc1F)N1CCC[C@H](c2nc(-c3ccc(F)cc3F)no2)C1` [Example 69, (2,4-Difluoro-phenyl)-{(S)-3-[3-(2,4-difluoro-phenyl)-[1,2,4]oxadiazol-5-yl]-piperidin-1-yl}-methanone]: 1000 to 10000 nM. With `O=C(c1ccccn1)N1CCC[C@H](c2nc(-c3ccc(F)cc3)no2)C1` [Example 15, {(S)-3-[3-(4-Fluoro-phenyl)-[1,2,4]oxadiazol-5-yl]-piperidin-1-yl}-pyridin-2-yl-methanone hydrochloride], the EC50 on rat mGluR5 lay within 1000 to 10000 nM. Same read-out and setting: next, `O=C(c1ccsc1Br)N1CCC[C@H](c2nc(-c3ccc(F)cc3)no2)C1` [Example 28, (S)-(2-Bromo-thiophen-3-yl)-{3-[3-(4-fluoro-phenyl)-[1,2,4]oxadiazol-5-yl]-piperidin-1-yl}-methanone]: 1000 to 10000 nM.

On to `O=C(c1ccc(F)cc1)N1CCC[C@H](c2nc(-c3cccs3)no2)C1` [Example 37, (4-Fluoro-phenyl)-[(S)-3-(3-thiophen-2-yl-[1,2,4]oxadiazol-5-yl)-piperidin-1-yl]-methanone], for which the EC50 on rat mGluR5 is < 1000 nM.

In the case of `O=C(c1ccc(F)nc1)N1CCC[C@H](c2nc(-c3ccccc3F)no2)C1` [Example 64, {(S)-3-[3-(2-Fluoro-phenyl)-[1,2,4]oxadiazol-5-yl]-piperidin-1-yl}-(6-fluoro-pyridin-3-yl)-methanone], the EC50 at rat mGluR5 is < 1000 nM.

On to `CCc1oncc1C(=O)N1CCC[C@H](c2nc(-c3ccc(F)cc3)no2)C1` [Example 46, (5-Ethyl-isoxazol-4-yl)-{(S)-3-[3-(4-fluoro-phenyl)-[1,2,4]oxadiazol-5-yl]-piperidin-1-yl}-methanone], for which, at rat mGluR5, the EC50 lay in the range of 1000 to 10000 nM. Still for that read-out and setting: next, `O=C(c1ccc(F)cc1F)N1CCC[C@H](c2nc(-c3ccccc3)no2)C1` [Example 59, (2,4-Difluoro-phenyl)-[(S)-3-(3-phenyl-[1,2,4]oxadiazol-5-yl)-piperidin-1-yl]-methanone]: < 1000 nM; `Cc1cccc(-c2noc([C@H]3CCCN(C(=O)c4ccc(F)cc4)C3)n2)n1` [Example 33, (4-Fluoro-phenyl)-{(S)-3-[3-(6-methyl-pyridin-2-yl)-[1,2,4]oxadiazol-5-yl]-piperidin-1-yl}-methanone]: 1000 to 10000 nM; `Cc1ncc(-c2noc([C@H]3CCCN(C(=O)c4ccc(F)cc4F)C3)n2)s1` [Example 74, (2,4-Difluoro-phenyl)-{(S)-3-[3-(2-methyl-thiazol-5-yl)-[1,2,4]oxadiazol-5-yl]-piperidin-1-yl}-methanone]: 1000 to 10000 nM. The same measure, in the same setting: as for `Cn1cccc1-c1noc([C@H]2CCCN(C(=O)c3ccc(F)cc3)C2)n1` [Example 39, (4-Fluoro-phenyl)-{(S)-3-[3-(1-methyl-1H-pyrrol-2-yl)-[1,2,4]oxadiazol-5-yl]-piperidin-1-yl}-methanone], the figure is 1000 to 10000 nM.

`Cc1ccc(-c2noc([C@H]3CCCN(C(=O)c4ccc(F)cc4)C3)n2)o1` [Example 34, (4-Fluoro-phenyl)-{(S)-3-[3-(5-methyl-furan-2-yl)-[1,2,4]oxadiazol-5-yl]-piperidin-1-yl}-methanone]: the EC50 on rat mGluR5 was in the range of 1000 to 10000 nM.

As for `Cc1cc(F)ccc1C(=O)N1CCC[C@H](c2nc(-c3ccncc3)no2)C1` [Example 53, (4-Fluoro-2-methyl-phenyl)-[(S)-3-(3-pyridin-4-yl-[1,2,4]oxadiazol-5-yl)-piperidin-1-yl]-methanone], on rat mGluR5, the EC50 is 1000 to 10000 nM.

Turning to `Cc1cc(F)ccc1C(=O)N1CCC[C@H](c2nc(-c3ccc(F)cc3)no2)C1` [Example 32, (4-Fluoro-2-methyl-phenyl)-{(S)-3-[3-(4-fluoro-phenyl)-[1,2,4]oxadiazol-5-yl]-piperidin-1-yl}-methanone], at rat mGluR5, the EC50 is < 1000 nM. Consider `Cc1oncc1C(=O)N1CCC[C@H](c2nc(-c3ccccc3F)no2)C1` [Example 61, {(S)-3-[3-(2-Fluoro-phenyl)-[1,2,4]oxadiazol-5-yl]-piperidin-1-yl}-(5-methyl-isoxazol-4-yl)-methanone], for which, on rat mGluR5, the EC50 was < 1000 nM. In the case of `Cc1c(C(=O)N2CCC[C@H](c3nc(-c4ccc(F)cc4)no3)C2)cnn1C` [Example 21, (1,5-Dimethyl-1H-pyrazol-4-yl)-{(S)-3-[3-(4-fluoro-phenyl)-[1,2,4]oxadiazol-5-yl]-piperidin-1-yl}-methanone], the 50% effective concentration (EC50) on rat mGluR5 lay in the range of 1000 to 10000 nM. On the same count and under the same terms, as for `Cc1oncc1C(=O)N1CCC[C@H](c2nc(-c3ccsc3)no2)C1` [Example 44, (5-Methyl-isoxazol-4-yl)-[(S)-3-(3-thiophen-3-yl-[1,2,4]oxadiazol-5-yl)-piperidin-1-yl]-methanone], the figure is < 1000 nM; as for `O=C(c1ccc(OC(F)(F)F)cc1)N1CCC[C@H](c2nc(-c3ccc(F)cc3)no2)C1` [Example 76, {(S)-3-[3-(4-Fluoro-phenyl)-[1,2,4]oxadiazol-5-yl]-piperidin-1-yl}-(4-trifluoromethoxy-phenyl)-methanone], 1000 to 10000 nM.
